One series concerns MKN-45 cells. Put plainly: Inhibition of MKN-45 proliferation (MTT). The format is cell-based, human. The method in brief:
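High-Met human gastric adenocarcinoma MKN-45 cells plated in complete growth medium, compounds added next day and viability read 3 days later by MTT dye reduction.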

Setting [1] is: Homo sapiens, MKN-45, MKN-45 proliferation, 1 μM.
The mark [2] stands for this setting: Homo sapiens, MKN-45, MKN-45 proliferation, 0.1 μM.

In general, inhibition refers to the share of the control response that was lost under treatment. A lower inhibition goes with little suppression. What is called melting point is the temperature of the solid-liquid transition. A word on the GI50: it is the concentration that inhibits growth by half.

SMILES strings stand for the structures. Bounds are passed on as bounds.

Compound `COc1ccc(-c2ccc3nnn(Cc4ccc5ncccc5c4)c3n2)cc1` [Ex 1, 6-((5-(4-Methoxyphenyl)-3H-[1,2,3]triazolo[4,5-b]pyridin-3-yl)methyl)quinoline] yielded a melting point of 144 to 146 °C. The same compound had an inhibition at 1 µM in the series with MKN-45 cells (setting [1]) of 25 to 50%.

`OCc1cccc(-c2ccc3nnn(Cc4ccc5ncccc5c4)c3n2)c1` [Ex 4, (3-(3-(quinolin-6-ylmethyl)-3H-[1,2,3]triazolo[4,5-b]pyridin-5-yl)phenyl)methanol] had a melting point of 191 to 193 °C. Besides, in the series with MKN-45 cells (Homo sapiens, MKN-45, MKN-45 proliferation), the GI50 fell in the range of 150 to 500 nM.

`O=C(O)c1ccc(-c2ccc3nnn(Cc4c(F)ccc(F)c4Cl)c3n2)cc1F` [Ex 18, 4-(3-(2-Chloro-3,6-difluorobenzyl)-3H-[1,2,3]triazolo[4,5-b]pyridin-5-yl)-2-fluorobenzoic acid]: the melting point fell in the range of 211 to 213 °C. Moreover, the inhibition at 1 µM with MKN-45 cells (setting [1]) was less than 25%.

Take `CNC(=O)c1ccc(-c2ccc3nnn(Cc4c(F)ccc(F)c4Cl)c3n2)cc1F` [Ex 19, 4-(3-(2-Chloro-3,6-difluorobenzyl)-3H-[1,2,3]triazolo[4,5-b]pyridin-5-yl)-2-fluoro-N-methylbenzamide]: the melting point fell in the range of 213 to 215 °C. In addition, the inhibition at 1 µM in the series on MKN-45 cells (setting [1]) is less than 25%.

`FC(F)(F)Oc1cccc(-c2ccc3nnn(Cc4ccc5ncccc5c4)c3n2)c1` [Ex 23, 6-((5-(3-(trifluoromethoxy)phenyl)-3H-[1,2,3]triazolo[4,5-b]pyridin-3-yl)methyl)quinoline] gave a melting point of 140 to 142 °C. For the same compound, in the series with MKN-45 cells (setting [1]), the inhibition at 1 µM is less than 25%.

Take `Oc1cccc(-c2ccc3nnn(Cc4ccc5ncccc5c4)c3n2)c1` [Ex 24, 3-(3-(quinolin-6-ylmethyl)-3H-[1,2,3]triazolo[4,5-b]pyridin-5-yl)phenol]: the melting point was 255 to 257 °C. The inhibition at 1 µM with MKN-45 cells (setting [1]) is less than 25%.

Turning to `FC(F)Oc1cccc(-c2ccc3nnn(Cc4ccc5ncccc5c4)c3n2)c1` [Ex 25, 6-((5-(3-(difluoromethoxy)phenyl)-3H-[1,2,3]triazolo[4,5-b]pyridin-3-yl)methyl) quinoline], the melting point lay within 122 to 125 °C. The compound further yielded an inhibition at 1 µM in the series with MKN-45 cells (setting [1]) of less than 25%.

In turn, `O=C(Nc1ccncc1)c1ccc(-c2ccc3nnn(Cc4ccc5ncccc5c4)c3n2)cc1F` [Ex 47, 2-Fluoro-N-(pyridin-4-yl)-4-(3-(quinolin-6-ylmethyl)-3H-[1,2,3]triazolo[4,5-b]pyridin-5-yl)benzamide] came in with a melting point of 217 to 219 °C. In the series on MKN-45 cells (setting [2]), this compound returned an inhibition at 0.1 µM of less than 25%. The compound further gave an inhibition at 1 µM in the series on MKN-45 cells (setting [1]) of 50 to 75%.

With `O=C(NCc1ccccc1)c1ccc(-c2ccc3nnn(Cc4ccc5ncccc5c4)c3n2)cc1F` [Ex 48, N-Benzyl-2-fluoro-4-(3-(quinolin-6-ylmethyl)-3H-[1,2,3]triazolo[4,5-b]pyridin-5-yl)benzamide], the melting point fell in the range of 163 to 165 °C. This compound also came in with an inhibition at 0.1 µM in the series with MKN-45 cells (setting [2]) of less than 25%. In the series on MKN-45 cells (setting [1]), this compound came in with an inhibition at 1 µM of 75 to 100%.

Compound `CN(C)C(=O)c1ccc(-c2ccc3nnn(Cc4ccc5ncccc5c4)c3n2)cc1F` [Ex 49, 2-Fluoro-N,N-dimethyl-4-(3-(quinolin-6-ylmethyl)-3H-[1,2,3]triazolo[4,5-b]pyridin-5-yl)benzamide] displayed a melting point of 163 to 165 °C. This compound also came in with an inhibition at 0.1 µM in the series with MKN-45 cells (setting [2]) of less than 25%. For the same compound, in the series on MKN-45 cells (setting [1]), the inhibition at 1 µM lay in the range of 25 to 50%.

Turning to `O=C(O)CNC(=O)c1ccc(-c2ccc3nnn(Cc4ccc5ncccc5c4)c3n2)cc1F` [Ex 51, 2-(2-Fluoro-4-(3-(quinolin-6-ylmethyl)-3H-[1,2,3]triazolo[4,5-b]pyridin-5-yl)benzamido)acetic acid], the melting point was in the range of 252 to 254 °C. Besides, the inhibition at 0.1 µM with MKN-45 cells (setting [2]) is less than 25%. In the series with MKN-45 cells (setting [1]), the inhibition at 1 µM is less than 25%.

`Fc1cccc(-c2ccc3nnn(Cc4ccc5ncccc5c4)c3n2)c1` [Ex 56, 6-((5-(3-Fluorophenyl)-3H-[1,2,3]triazolo[4,5-b]pyridin-3-yl)methyl)quinoline] yielded a melting point of 145 to 147 °C. The inhibition at 0.1 µM in the series with MKN-45 cells (setting [2]) was less than 25%. In the series with MKN-45 cells (setting [1]), this compound had an inhibition at 1 µM of less than 25%.

As to `CON(C)C(=O)c1ccc(-c2ccc3nnn(Cc4ccc5ncccc5c4)c3n2)cc1F.Cl` [Ex 59, 2-Fluoro-N-methoxy-N-methyl-4-(3-(quinolin-6-ylmethyl)-3H-[1,2,3]triazolo[4,5-b]pyridin-5-yl)benzamide hydrochloride], the melting point is 201 to 202 °C. The compound also yielded an inhibition at 0.1 µM with MKN-45 cells (setting [2]) of less than 25%. In the series on MKN-45 cells (setting [1]), this compound came in with an inhibition at 1 µM of 50 to 75%.

In the case of `CC(C)(C)NC(=O)c1ccc(-c2ccc3nnn(Cc4ccc5ncccc5c4)c3n2)cc1F` [Ex 60, N-tert-Butyl-2-fluoro-4-(3-(quinolin-6-ylmethyl)-3H-[1,2,3]triazolo[4,5-b]pyridin-5-yl) benzamide], the melting point was 210 to 212 °C. Besides, the inhibition at 0.1 µM in the series with MKN-45 cells (setting [2]) is less than 25%. The same compound yielded an inhibition at 1 µM in the series on MKN-45 cells (setting [1]) of less than 25%.

`C=CCNC(=O)c1ccc(-c2ccc3nnn(Cc4ccc5ncccc5c4)c3n2)cc1F` [Ex 61, N-Allyl-2-fluoro-4-(3-(quinolin-6-ylmethyl)-3H-[1,2,3]triazolo[4,5-b]pyridin-5-yl) benzamide] had a melting point of 162 to 164 °C. The compound further displayed an inhibition at 0.1 µM with MKN-45 cells (setting [2]) of 75 to 100%. Moreover, the inhibition at 1 µM in the series on MKN-45 cells (setting [1]) lay in the range of 75 to 100%.

The compound `CONC(=O)c1ccc(-c2ccc3nnn(Cc4ccc5ncccc5c4)c3n2)cc1F` [Ex 62, 2-Fluoro-N-methoxy-4-(3-(quinolin-6-ylmethyl)-3H-[1,2,3]triazolo[4,5-b]pyridin-5-yl)benzamide] yielded a melting point of 197 to 199 °C. The “Inhibition (% Inhibition of MKN-45 proliferation)” value in the series with MKN-45 cells (MKN-45 proliferation, 0.1 μM) is given as “A (A = ≥75 to 100%)”. Besides, in the series with MKN-45 cells (MKN-45 proliferation, 1 μM), the “% inhibition @ 1 uM” value was “A (A = ≥75 to 100%)”.

`CC(=O)Nc1ccc(-c2ccc3nnn(Cc4ccc5ncccc5c4)c3n2)cc1` [Ex 63, N-(4-(3-(quinolin-6-ylmethyl)-3H-[1,2,3]triazolo[4,5-b]pyridin-5-yl)phenyl)acetamide] showed a melting point of 220 to 223 °C. This compound also displayed an inhibition at 0.1 µM with MKN-45 cells (setting [2]) of less than 25%. For the same compound, in the series on MKN-45 cells (setting [1]), the inhibition at 1 µM lay within 50 to 75%.

As for `Nc1ccc(-c2ccc3nnn(Cc4ccc5ncccc5c4)c3n2)cc1` [Ex 64, 4-(3-(quinolin-6-ylmethyl)-3H-[1,2,3]triazolo[4,5-b]pyridin-5-yl)aniline], the melting point was in the range of 190 to 193 °C. The inhibition at 1 µM with MKN-45 cells (setting [1]) was in the range of 25 to 50%.

In the case of `COc1ccc(-c2ccc3nnn(Cc4ccc5ncccc5c4)c3n2)cc1OC` [Ex 65, 6-((5-(3,4-Dimethoxyphenyl)-3H-[1,2,3]triazolo[4,5-b]pyridin-3-yl)methyl)quinoline], the melting point is 149 to 152 °C. In addition, the inhibition at 0.1 µM with MKN-45 cells (setting [2]) was less than 25%. Also, the inhibition at 1 µM in the series with MKN-45 cells (setting [1]) is less than 25%.

Take `COc1ccc(-c2ccc3nnn(Cc4ccc5ncccc5c4)c3n2)cc1F` [Ex 66, 6-((5-(3-Fluoro-4-methoxyphenyl)-3H-[1,2,3]triazolo[4,5-b]pyridin-3-yl)methyl)quinoline]: the melting point was 187 to 190 °C. The compound also gave an inhibition at 0.1 µM in the series with MKN-45 cells (setting [2]) of less than 25%. Moreover, the inhibition at 1 µM in the series with MKN-45 cells (setting [1]) was in the range of 25 to 50%.

`Fc1ccc(-c2ccc3nnn(Cc4ccc5ncccc5c4)c3n2)cc1` [Ex 67, 6-((5-(4-Fluorophenyl)-3H-[1,2,3]triazolo[4,5-b]pyridin-3-yl)methyl)quinoline] showed a melting point of 153 to 156 °C. Moreover, the inhibition at 0.1 µM in the series with MKN-45 cells (setting [2]) is less than 25%. The compound also came in with an inhibition at 1 µM in the series with MKN-45 cells (Homo sapiens, MKN-45, MKN-45 proliferation, 1 μM, number printed instead of class) of 13.8%.

The compound `Fc1ccccc1-c1ccc2nnn(Cc3ccc4ncccc4c3)c2n1` [Ex 68, 6-((5-(2-Fluorophenyl)-3H-[1,2,3]triazolo[4,5-b]pyridin-3-yl)methyl)quinoline] came in with a melting point of 164 to 166 °C. Besides, in the series on MKN-45 cells (setting [2]), the inhibition at 0.1 µM is less than 25%. In addition, the inhibition at 1 µM with MKN-45 cells (setting [1]) is less than 25%.

In turn, `CC(=O)Nc1cccc(-c2ccc3nnn(Cc4ccc5ncccc5c4)c3n2)c1` [Ex 69, N-(3-(3-(quinolin-6-ylmethyl)-3H-[1,2,3]triazolo[4,5-b]pyridin-5-yl)phenyl)acetamide] showed a melting point of 198 to 201 °C. Moreover, in the series with MKN-45 cells (setting [2]), the inhibition at 0.1 µM was less than 25%. The inhibition at 1 µM with MKN-45 cells (setting [1]) was less than 25%.

The compound `FC(F)(F)COc1cccc(-c2ccc3nnn(Cc4ccc5ncccc5c4)c3n2)c1` [Ex 70, 6-((5-(3-(2,2,2-Trifluoroethoxy)phenyl)-3H-[1,2,3]triazolo[4,5-b]pyridin-3-yl)methyl)quinoline] gave a melting point of 151 to 154 °C. The inhibition at 0.1 µM in the series with MKN-45 cells (setting [2]) is less than 25%. The inhibition at 1 µM in the series with MKN-45 cells (setting [1]) was less than 25%.

For the compound `Nc1cccc(-c2ccc3nnn(Cc4ccc5ncccc5c4)c3n2)c1` [Ex 71, 3-(3-(quinolin-6-ylmethyl)-3H-[1,2,3]triazolo[4,5-b]pyridin-5-yl)aniline], the melting point lay within 187 to 189 °C. For the same compound, the inhibition at 0.1 µM with MKN-45 cells (setting [2]) was less than 25%. Moreover, in the series on MKN-45 cells (setting [1]), the inhibition at 1 µM fell in the range of 25 to 50%.

Consider `O=C(O)Cn1cc(-c2ccc3nnn(Cc4ccc5ncccc5c4)c3n2)cn1` [Ex 155, 2-(4-(3-(Quinolin-6-ylmethyl)-3H-[1,2,3]triazolo[4,5-b]pyridin-5-yl)-1H-pyrazol-1-yl)acetic acid], for which the melting point was greater than 270 °C.

`O[C@@H]1CCN(c2ccc3nnn(Cc4ccc5ncccc5c4)c3n2)C1` [Ex 158, (R)-1-(3-(Quinolin-6-ylmethyl)-3H-[1,2,3]triazolo[4,5-b]pyridin-5-yl)pyrrolidin-3-ol] had a melting point of 167 to 169 °C.

As for `OCCn1cc(-c2ccc3nnn(Cc4ccc(F)cc4)c3n2)cn1` [Ex 161, 2-(4-(3-(4-Fluorobenzyl)-3H-[1,2,3]triazolo[4,5-b]pyridin-5-yl)-1H-pyrazol-1-yl)ethanol], the melting point is 204 to 206 °C.

On to `OCCn1cc(-c2ccc3nnn(Cc4c(F)ccc(F)c4Cl)c3n2)cn1` [Ex 165, 2-(4-(3-(2-Chloro-3,6-difluorobenzyl)-3H-[1,2,3]triazolo[4,5-b]pyridin-5-yl)-1H-pyrazol-1-yl)ethanol], for which the melting point was 143 to 145 °C.
